The source of these data is patent US20230203043A1, “NOVEL IMIDAZOPYRAZINE DERIVATIVES” (Hoffmann-La Roche Inc., priority 2020, published 2023).

Counter-ions that a name gives are not always drawn.

In the first experiment the test system is Acinetobacter baumannii ATCC17961. Put plainly: Antimicrobial susceptibility testing: 90% growth inhibitory concentration (IC90) determination in Iso-Sensitest broth, OD600 growth. The class given is cell-based. The following applies: Acinetobacter baumannii, ATCC17961, 16 h, read-out: A. baumannii ATCC 17961 IC90 (uM), strain ATCC 17961, OD600 growth over 16 h. In short, it runs like this:
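Serial twofold dilution, 10 points, e.g. 50–0.097 μM final; ~5×10^(5) CFU/ml; 35±2° C, 16 h; kinetic OD600 every 20 min; IC90 from log-phase inhibition.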
One may read the IC90 as the concentration needed for an effect of 90%. Turning to `Cc1cc(Nc2nccn3c(-c4cn(CC#N)nc4C(F)(F)F)cnc23)ccc1C(=O)N1CCN(C(=O)[C@@H]2CCNC[C@@H]2O)CC1` [Example 421, formic acid; 2-[4-[8-[4-[4-[(3R,4R)-3-hydroxypiperidine-4-carbonyl]piperazine-1-carbonyl]-3-methylanilino]imidazo[1,2-a]pyrazin-3-yl]-3-(trifluoromethyl)pyrazol-1-yl]acetonitrile], the IC90 was 0.629 µM. As to `CCc1cc(Nc2nccn3c(-c4cn(CC(F)F)nc4C(F)(F)F)cnc23)ccc1C(=O)NCC(=O)NC1CC(N)C1` (stereo not drawn) [Example 642, N-[2-[(3-aminocyclobutyl)amino]-2-oxo-ethyl]-4-[[3-[1-(2,2-difluoroethyl)-3-(trifluoromethyl)pyrazol-4-yl]imidazo[1,2-a]pyrazin-8-yl]amino]-2-ethyl-benzamide formate], the IC90 worked out at 0.232 µM. On to `O=C(c1ccc(Nc2nccn3c(-c4c[nH]nc4C(F)(F)F)cnc23)cc1Cl)N1CCN(C(=O)[C@@H]2CCNC[C@@H]2O)CC1` [Example 450, [2-chloro-4-[[3-[3-(trifluoromethyl)-1H-pyrazol-4-yl]imidazo[1,2-a]pyrazin-8-yl]amino]phenyl]-[4-[(3R,4R)-3-hydroxypiperidine-4-carbonyl]piperazin-1-yl]methanone formate], for which the IC90 is 0.306 µM. As to `CCc1cc(Nc2nccn3c(-c4c[nH]nc4C(F)(F)F)cnc23)ccc1C(=O)NC1CNC1` [Example 515, N-(azetidin-3-yl)-2-ethyl-4-((3-(3-(trifluoromethyl)-1H-pyrazol-4-yl)imidazo[1,2-a]pyrazin-8-yl)amino)benzamide formate], the IC90 came to 0.49 µM. Regarding `CNC(=O)c1ccc(Nc2nccn3c(-c4cn(CC5CCN(Cc6ccccc6)C5)nc4C(F)(F)F)cnc23)cc1Cl` (stereo not drawn) [Example 593, 4-((3-(1-((1-benzylpyrrolidin-3-yl)methyl)-3-(trifluoromethyl)-1H-pyrazol-4-yl)imidazo [1,2-a]pyrazin-8-yl)amino)-2-chloro-N-methylbenzamide formate], the IC90 came to 0.234 µM. On the same count and under the same terms, with `CCc1cc(Nc2nccn3c(-c4cn(CC(F)F)nc4C(F)(F)F)cnc23)ccc1C(=O)N1CC(N)C1` [Example 556, (3-aminoazetidin-1-yl)(4-((3-(1-(2,2-difluoroethyl)-3-(trifluoromethyl)-1H-pyrazol-4-yl)imidazo[1,2-a]pyrazin-8-yl)amino)-2-ethylphenyl)methanone formate] the figure was 0.675 µM; with `Cc1cc(Nc2nccn3c(-c4cn(CC#N)nc4C(F)(F)F)cnc23)ccc1C(=O)N[C@H](C)C(=O)N[C@H]1CCNC1` [Example 738, 4-[[3-[1-(cyanomethyl)-3-(trifluoromethyl)pyrazol-4-yl]imidazo[1,2-a]pyrazin-8-yl]amino]-2-methyl-N-[(1R)-1-methyl-2-oxo-2-[[(3S)-pyrrolidin-3-yl]amino]ethyl]benzamide formate], 0.526 µM. Regarding `Cc1cc(Nc2nccn3c(-c4cn(CC#N)nc4C(F)(F)F)cnc23)ccc1C(=O)NCC(=O)N1CC(N)C1` [Example 751, N-[2-(3-aminoazetidin-1-yl)-2-oxo-ethyl]-4-[[3-[1-(cyanomethyl)-3-(trifluoromethyl)pyrazol-4-yl]imidazo[1,2-a]pyrazin-8-yl]amino]-2-methyl-benzamide formate], the IC90 is 0.627 µM. Consider `O=C(c1ccc(Nc2nccn3c(-c4c[nH]nc4C(F)(F)F)cnc23)cc1Cl)N1CCN(C(=O)C2CCNCC2)CC1` [Example 401, [2-chloro-4-[[3-[3-(trifluoromethyl)-1H-pyrazol-4-yl]imidazo[1,2-a]pyrazin-8-yl]amino]phenyl]-[4-(piperidine-4-carbonyl)piperazin-1-yl]methanone formate], for which the IC90 was found to be 0.273 µM.

For the compound `CCc1cc(Nc2nccn3c(-c4cn(C5COC5)nc4C(F)(F)F)cnc23)ccc1C(=O)NCCOCCN` [Example 241, N-[2-(2-aminoethoxy)ethyl]-2-ethyl-4-[[3-[1-(oxetan-3-yl)-3-(trifluoromethyl)pyrazol-4-yl]imidazo[1,2-a]pyrazin-8-yl]amino]benzamide formate], the IC90 stood at 0.322 µM. Still for that read-out and setting: in the case of `CCc1cc(Nc2nccn3c(-c4cn(CCN5CCOCC5)nc4C(F)(F)F)cnc23)ccc1C(=O)NCCOCCN` [Example 317, N-[2-(2-aminoethoxy)ethyl]-2-ethyl-4-[[3-[1-(2-morpholin-4-ylethyl)-3-(trifluoromethyl)pyrazol-4-yl]imidazo[1,2-a]pyrazin-8-yl]amino]benzamide formate] it was 1.88 µM; in that of `N#CCn1cc(-c2cnc3c(Nc4ccc(C(=O)NC5CCC(N)CC5)c(Cl)c4)nccn23)c(C(F)(F)F)n1` (stereo not drawn) [Example 199, N-(4-aminocyclohexyl)-2-chloro-4-[[3-[1-(cyanomethyl)-3-(trifluoromethyl)pyrazol-4-yl]imidazo[1,2-a]pyrazin-8-yl]amino]benzamide formate], 0.336 µM.

The same experiment, now with this note: Acinetobacter baumannii, ATCC17961, 16 h, strain ATCC 17961, OD600 growth over 16 h, read-out: A. baumannii ATCC 17961 IC90.
For the compound `Cc1cc(Nc2nccn3c(-c4cn(CC(F)F)nc4C(F)(F)F)cnc23)cc(F)c1C(=O)N1CCN(C(=O)[C@@H]2C[C@@H](O)CN2)CC1` [Example 698, (4-(4-((3-(1-(2,2-difluoroethyl)-3-(trifluoromethyl)-1H-pyrazol-4-yl)imidazo[1,2-a]pyrazin-8-yl)amino)-2-fluoro-6-methylbenzoyl)piperazin-1-yl)((2S,4R)-4-hydroxypyrrolidin-2-yl)methanone], the IC90 came to 0.374 µM. For `Cc1cc(Nc2nccn3c(-c4cn(CC(F)F)nc4C(F)(F)F)cnc23)cc(F)c1C(=O)N1CCN(C(=O)CN)CC1` [Example 650, 2-amino-1-(4-(4-((3-(1-(2,2-difluoroethyl)-3-(trifluoromethyl)-1H-pyrazol-4-yl)imidazo[1,2-a]pyrazin-8-yl)amino)-2-fluoro-6-methylbenzoyl)piperazin-1-yl)ethan-1-one], the IC90 came to 0.252 µM. As for `CCc1cc(Nc2nccn3c(-c4cn(CC#N)nc4C(F)(F)F)cnc23)ccc1C(=O)NCCCNC(=O)N1CC[C@@H](N)C1` [Example 685, (R)-3-amino-N-(3-(4-((3-(1-(cyanomethyl)-3-(trifluoromethyl)-1H-pyrazol-4-yl)imidazo[1,2-a]pyrazin-8-yl)amino)-2-ethylbenzamido)propyl) pyrrolidine-1-carboxamide formate], the IC90 was 0.34 µM. As to `CCc1cc(Nc2nccn3c(-c4cn(CCF)nc4C(F)F)cnc23)ccc1C(=O)N1CCN(C(=O)C2(O)CCNCC2)CC1` [Example 791, (4-(4-((3-(3-(difluoromethyl)-1-(2-fluoroethyl)-1H-pyrazol-4-yl)imidazo[1,2-a]pyrazin-8-yl)amino)-2-ethylbenzoyl)piperazin-1-yl)(4-hydroxypiperidin-4-yl)methanone], the IC90 was 1.85 µM.

In the case of `N[C@@H]1CCN(C(=O)c2ccc(Nc3nccn4c(-c5c[nH]nc5C(F)(F)F)cnc34)cc2Cl)C1` [Example 324, [(3R)-3-aminopyrrolidin-1-yl]-[2-chloro-4-[[3-[3-(trifluoromethyl)-1H-pyrazol-4-yl]imidazo[1,2-a]pyrazin-8-yl]amino]phenyl]methanone], the IC90 was 1.23 µM. On the same count and under the same terms, with `CCc1cc(Nc2nccn3c(-c4cn(CC(F)F)nc4C(F)(F)F)cnc23)ccc1C(=O)NCCNC(=O)[C@@H]1C[C@@H](O)CN1` [Example 667, (2S,4R)-N-(2-(4-((3-(1-(2,2-difluoroethyl)-3-(trifluoromethyl)-1H-pyrazol-4-yl)imidazo[1,2-a]pyrazin-8-yl)amino)-2-ethylbenzamido)ethyl)-4-hydroxypyrrolidine-2-carboxamide] the figure was 0.294 µM. Take `NCC(=O)N1CCN(C(=O)c2ccc(Nc3nccn4c(-c5cn(C(F)F)nc5C(F)(F)F)cnc34)cc2Cl)CC1` [Example 78, 2-amino-1-[4-[2-chloro-4-[[3-[1-(difluoromethyl)-3-(trifluoromethyl)pyrazol-4-yl]imidazo[1,2-a]pyrazin-8-yl]amino]benzoyl]piperazin-1-yl]ethanone]: the IC90 stood at 0.161 µM. Still for that read-out and setting: with `O=C(NC1CN(C(=O)[C@@H]2C[C@@H](O)CN2)C1)c1ccc(Nc2nccn3c(-c4c[nH]nc4C(F)(F)F)cnc23)cc1Cl` [Example 371, 2-chloro-N-[1-[(2S,4R)-4-hydroxypyrrolidine-2-carbonyl]azetidin-3-yl]-4-[[3-[3-(trifluoromethyl)-1H-pyrazol-4-yl]imidazo[1,2-a]pyrazin-8-yl]amino]benzamide] the figure was 0.309 µM; with `O=C(CC1CNC1)N1CCN(C(=O)c2ccc(Nc3nccn4c(-c5c[nH]nc5C(F)(F)F)cnc34)cc2Cl)CC1` [Example 133, 2-(azetidin-3-yl)-1-[4-[2-chloro-4-[[3-[3-(trifluoromethyl)-1H-pyrazol-4-yl]imidazo[1,2-a]pyrazin-8-yl]amino]benzoyl]piperazin-1-yl]ethanone], 0.322 µM. With `CCc1cc(Nc2nccn3c(-c4cn(CC(F)F)nc4C(F)(F)F)cnc23)ccc1C(=O)NCCNC(=O)[C@H]1CC[C@H](N)C1` [Example 492, N-(2-((1S,3S)-3-aminocyclopentane-1-carboxamido)ethyl)-4-((3-(1-(2,2-difluoroethyl)-3-(trifluoromethyl)-1H-pyrazol-4-yl)imidazo[1,2-a]pyrazin-8-yl)amino)-2-ethylbenzamide formate], the IC90 was 0.2 µM.

Staying with this experiment, now noted: strain ATCC 17961, OD600 growth over 16 h, read-out: A. baumannii ATCC 17961 IC90.
On to `CCc1cc(Nc2nccn3c(-c4cn(CC(F)F)nc4C(F)(F)F)cnc23)ccc1C(=O)N[C@H](C)CNC(=O)OC(C)(C)C` [Example 130, tert-butyl N-[(2R)-2-[[4-[[3-[1-(2,2-difluoroethyl)-3-(trifluoromethyl)pyrazol-4-yl]imidazo[1,2-a]pyrazin-8-yl]amino]-2-ethylbenzoyl]amino]propyl] carbamate], for which the concentration for an effect of 90% (IC90) amounted to 1.33 µM.

On to `NC1CCC(NC(=O)c2ccc(Nc3nccn4c(-c5c[nH]nc5C(F)(F)F)cnc34)cc2Cl)CC1` (stereo not drawn) [Example 405, N-(4-aminocyclohexyl)-2-chloro-4-[[3-[3-(trifluoromethyl)-1H-pyrazol-4-yl]imidazo[1,2-a]pyrazin-8-yl]amino]benzamide], for which the IC90 was 1.3 µM.
